# Reference: patent publication US8946203B2, “Benzodioxane inhibitors of leukotriene production” (Boehringer Ingelheim International GmbH, priority 2012, dated 2015)
# Like-named read-outs stand apart in the source and are kept apart here.
# Assays:
# human LTA4 hydrolase = biological target: T1, human LTA4 hydrolase (Homo sapiens, UniProt P09960); assay: LTA4H Enzyme assay (cleavage of Arg-AMC, fluorescence); format: biochemical
# T1 sequence (P09960 1-611): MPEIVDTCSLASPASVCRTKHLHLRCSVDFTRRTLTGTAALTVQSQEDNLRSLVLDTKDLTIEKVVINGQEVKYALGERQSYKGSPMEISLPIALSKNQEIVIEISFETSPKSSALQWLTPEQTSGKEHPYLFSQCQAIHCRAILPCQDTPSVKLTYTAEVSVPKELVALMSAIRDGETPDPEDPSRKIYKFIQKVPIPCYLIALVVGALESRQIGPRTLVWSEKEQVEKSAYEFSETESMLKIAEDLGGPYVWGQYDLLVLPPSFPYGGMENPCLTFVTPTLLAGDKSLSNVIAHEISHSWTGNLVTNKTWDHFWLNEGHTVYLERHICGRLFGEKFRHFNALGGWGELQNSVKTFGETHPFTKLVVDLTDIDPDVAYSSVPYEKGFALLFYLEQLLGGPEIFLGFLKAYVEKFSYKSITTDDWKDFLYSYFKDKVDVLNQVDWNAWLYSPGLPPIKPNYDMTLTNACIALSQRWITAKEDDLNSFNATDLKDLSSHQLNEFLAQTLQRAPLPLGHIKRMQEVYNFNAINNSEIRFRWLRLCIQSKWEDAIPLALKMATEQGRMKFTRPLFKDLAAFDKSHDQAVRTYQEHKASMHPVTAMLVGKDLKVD
# Procedure, shortened: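 Peptidase activity of human LTA4H (1 nM final) on Arg-AMC (50 μM final), with compound, 1 h at room temperature. Buffer: 50 mM Tris-HCl pH 7.5, 100 mM KCl, 0.5% BSA.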
# [1] = system: synthesis of LTB4 in human whole blood; assay: human whole blood (HWB) assay, LTB4 production inhibition after calcimycin stimulation; format: cell-based; settings: heparinized human whole blood, calcimycin 20 μM, plasma LTB4 by HTRF
# Procedure, shortened: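 Heparinized human whole blood preincubated with compound 15 min at 37 °C, then stimulated with 20 μM (final) calcimycin for 30 min at 37 °C. Plasma LTB4 measured by antibody-based HTRF; IC50 reported.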
# [2] = LTA4H Enzyme 1 nM, Arg-AMC substrate 50 μM, room temperature 1 h, fluorescence, read-out: IC50 values of LTA4H Enzyme assay
Structure (SMILES),IC50 (human LTA4 hydrolase; [2]) [nM],IC50 [1] [nM],IC50 (human LTA4 hydrolase) [nM]
"CC(=O)NCCC(=O)N1CCN(Cc2ccc([C@H]3COc4cccnc4O3)cc2)CC1 [Example 288, N-[3-[4-[[4-[(3S)-2,3-dihydro-[1,4]dioxino[2,3-b]pyridin-3-yl]phenyl]methyl]piperazin-1-yl]-3-oxo-propyl]acetamide]",0.88,150,
"O=C(CN1CCCC1=O)NC1CCN(Cc2ccc([C@H]3COc4cccnc4O3)cc2)CC1 [Example 289, N-[1-[[4-[(3S)-2,3-dihydro-[1,4]dioxino[2,3-b]pyridin-3-yl]phenyl]methyl]-4-piperidyl]-2-(2-oxopyrrolidin-1-yl)acetamide]",0.4,170,
"O=C(NC1CCN(Cc2ccc([C@H]3COc4cccnc4O3)cc2)CC1)C1CCOCC1 [Example 290, N-[1-[[4-[(3S)-2,3-dihydro-[1,4]dioxino[2,3-b]pyridin-3-yl]phenyl]methyl]-4-piperidyl]tetrahydropyran-4-carboxamide]",0.2,48,
"O=C1OCCCN1C1CCN(Cc2ccc([C@H]3COc4cccnc4O3)cc2)CC1 [Example 291, 3-{1-[(S)-4-(2,3-Dihydro-[1,4]dioxino[2,3-b]pyridin-3-yl)-benzyl]-piperidin-4-yl}-[1,3]oxazinan-2-one]",0.19,56,
"CC(=O)N1C[C@@H]2C[C@H]1CN2Cc1ccc([C@H]2COc3cccnc3O2)cc1 [Example 292, 1-{(1S,4S)-5-[(S)-4-(2,3-Dihydro-[1,4]dioxino[2,3-b]pyridin-3-yl)-benzyl]-2,5-diaza-bicyclo[2.2.1]hept-2-yl}-ethanone]",0.16,24,
"c1cncc(OC2CCN(Cc3ccc([C@H]4COc5cccnc5O4)cc3)CC2)c1 [Example 293, (S)-3-{4-[4-(Pyridin-3-yloxy)-piperidin-1-ylmethyl]-phenyl}-2,3-dihydro-[1,4]dioxino[2,3-b]pyridine]",0.24,52,
"O=C(O)C1(c2ccccc2)CCN(Cc2ccc([C@H]3COc4cccnc4O3)cc2)CC1 [Example 294, 1-[(S)-4-(2,3-Dihydro-[1,4]dioxino[2,3-b]pyridin-3-yl)-benzyl]-4-phenyl-piperidine-4-carboxylic acid]",,1300,5.8
"[O-][S+]1CCN(Cc2ccc([C@H]3COc4cccnc4O3)cc2)CC1 [Example 295, (S)-3-[4-(1-Oxo-1lambda4-thiomorpholin-4-ylmethyl)-phenyl]-2,3-dihydro-[1,4]dioxino[2,3-b]pyridine]",0.79,120,
"O=C1OC[C@@H]2CN(Cc3ccc([C@H]4COc5cccnc5O4)cc3)CCN12 [Example 296, (S)-7-[(S)-4-(2,3-Dihydro-[1,4]dioxino[2,3-b]pyridin-3-yl)-benzyl]-hexahydro-oxazolo[3,4-a]pyrazin-3-one]",0.32,90,
